Data taken from US20250353825A1, “CANNABICYCLOL DERIVATIVES AND PREPARATION METHODS THEREOF” (priority 2023, published 2025).
Converted amounts (≈) assume the structure as drawn. Read-outs that look alike come from different tables or passages of the source.

Key:
Assay type in all cases: cell-based
[1] = MTS cell viability assay, HEK-293T (293T) normal cells; conditions: human
Protocol: (§1) Primary viability screening: (1) the synthesized compounds 3a to 13d were respectively dissolved in DMSO to prepare a 40 μg/mL cannabicyclol and cannabicyclol derivative solutions.
(§2) (2) A control group: a 200 μL DMSO solvent.
(§3) (3) The solutions of compounds 3a to 13d were diluted in a twofold gradient to obtain cannabicyclol and cannabicyclol derivative solutions at concentrations of 40 μg/mL, 20 μg/mL, 10 μg/mL, 5 μg/mL, 2.5 μg/mL, 1.25 μg/mL, and 0.625 μg/mL, and 0.3125 μg/mL, respectively.
(§4) (4) Three glioblastoma stem cells (GSC-3, GSC-12, and GSC-18), three pancreatic cancer cell-derived stem cells (PANC-1-CSC, BXPC-3-CSC, and ASPC1-CSC), three liver cancer cell-derived stem cells (HepG2-CSC, MHCC97H-CSC, and SMMC7721-CSC), HEK-293T cells, 16 tumor cells (U251, U87, T98G, PANC1, BXPC3, ASPC1, HepG2, MHCC97H, SMMC7721, PC3, SKOV3, MDA-MB231, A549, HCT116, HEC-1B, MKN28), and differentiated glioblastoma stem cells (GSC-3diff and GSC-12diff) derived from GSC-3 and GSC-12 (all of the cells were provided by the Laboratory of Tumor Animal Model Preparation and Application Research, West China Hospital, Sichuan University) were inoculated into a 96-well plate at a concentration of 2×10^4 cells/well, and 100 μL of culture medium was then added to each well;
(§5) (5) 2) HEK-293T, GSC-3diff, GSC-12diff, and the 16 tumor cells were added with DMEM, 10% FBS, and 1% double antibody culture medium. Cancer stem cells (CSCs) were added with serum-free stem cell medium consisting of DMEM/F12, EGF (20 ng/mL), bFGF (20 ng/mL), B27 (1×), and 1% double antibody culture medium.
(§6) (6) Inoculated cells were put into a cell culture incubator for 24 hours, and after the cells were well adhered to the wall, the culture medium in the 96-well plate was discarded.
(§7) (7) 200 μL cannabicyclol and cannabicyclol derivatives solutions at different concentrations were added to the cultured cells.
(§8) (8) The experiment was set up with 3 replicates.
(§9) (9) The 96-well plate was placed in a cell culture incubator, and incubation was continued at 37° C. and 5% CO2 for 72 hours. Then, 100 μL of cannabicyclol and cannabicyclol derivative solution per well was discarded (100 μL of DMSO solvent was discarded for the control group), and 20 μL of LMTS (CellTiter AQueous Non-Radioactive Cell Proliferation Assay, #G3581) was mixed and continued to be placed in the cell incubator for 2 hours of incubation.
(§10) (10) The absorbance value at 490 nm was measured on an enzyme labeling apparatus, and the IC50 value was calculated.

HEK-293T = assay: as above; conditions: Homo sapiens, HEK-293T; Table 8, normal cells, preferred compounds; read-out: IC50 293T
Protocol: as §1, §2, §3, §4, §5, §6, §7, §8, §9, §10

GSC-3 (3#-GSC) = assay: MTS cell viability assay, glioblastoma stem cells GSC-3 (3#-GSC); conditions: for IC50: GSC-3, Table 8, cancer stem cells, preferred compounds, read-out: IC50 3#-GSC; for selective anti-glioma stem cell viability: judged in words from preliminary viability screening against 3#-GSC, 293T and U251
Protocol: as §1, §2, §3, §4, §5, §6, §7, §8, §9, §10

U251 = assay: MTS cell viability assay, U251; conditions: for IC50: Homo sapiens, U-251, Table 8, tumor cells, preferred compounds, read-out: IC50 U251
Protocol: as §1, §2, §3, §4, §5, §6, §7, §8, §9, §10

[2] = HEK-293T (293T) normal cells, primary viability screening, 72 hours, MTS, test concentration not stated, read-out: Cell viability in 293T (%)
[3] = primary viability screening, 72 hours, MTS, test concentration not stated

| Structure (SMILES) | viability at 72 h [1] [%] | IC50 (HEK-293T) [µg/mL] | Cell viability in 3#-GSC (%) (GSC-3 (3#-GSC); 72 h) | IC50 (GSC-3 (3#-GSC)) [µg/mL] | selective anti-glioma stem cell viability (GSC-3 (3#-GSC)) | IC50 (U251) [µg/mL] | Cell viability in U251 (%) (U251; human, 72 h) | viability at 72 h [1, 2] [%] | Cell viability in 3#-GSC (%) (GSC-3 (3#-GSC); [3]) | Cell viability in U251 (%) (U251; [3]) |
| --- | --- | --- | --- | --- | --- | --- | --- | --- | --- | --- |
| CC12CCC3C1C(c1c(O)cc(-c4ccsc4)cc1O2)C3(C)C (stereo not drawn) [Compound 3t] | ≥ 100 | 16.4 (≈ 50.2 µM) | 50 | 3 (≈ 9.17 µM) | weak selective anti-glioma stem cell viability | 14 (≈ 42.8 µM) | 98 | – | – | – |
| CCCCCc1cc(OC(=O)C(C)CC)c2c(c1)OC1(C)CCC3C1C2C3(C)C (stereo not drawn) [Compound 9a] | – | > 40 | – | 4.32 (≈ 10.8 µM) | – | > 40 | – | ≥ 100 | 52 | ≥100 |
| CCCCCc1cc(OC(=O)CC)c2c(c1)OC1(C)CCC3C1C2C3(C)C (stereo not drawn) [Compound 9c] | – | > 40 | – | 9.32 (≈ 25.2 µM) | both the viability and selectivity were maintained | 24.7 (≈ 66.7 µM) | – | ≥ 100 | 28 | ≥100 |
| CCCCCc1cc(OC(=O)CN2CCOCC2)c2c(c1)OC1(C)CCC3C1C2C3(C)C (stereo not drawn) [Compound 9k] | – | > 40 | – | 5.37 (≈ 12.2 µM) | – | > 40 | – | ≥ 100 | 43 | ≥100 |
| CCCCCc1cc(OC(=O)CCN2CCOCC2)c2c(c1)OC1(C)CCC3C1C2C3(C)C (stereo not drawn) [Compound 9l] | – | > 40 | – | 2.9 (≈ 6.37 µM) | – | 24.7 (≈ 54.3 µM) | – | 93 | 32 | 90 |
| CCCCCc1cc(OC(=O)CN(C)C)c2c(c1)OC1(C)CCC3C1C2C3(C)C (stereo not drawn) [Compound 9m] | – | 22.9 (≈ 57.2 µM) | – | 5.44 (≈ 13.6 µM) | – | > 40 | – | ≥ 100 | 42 | ≥100 |
| CCCCCc1cc(OC(=O)CCN(C)C)c2c(c1)OC1(C)CCC3C1C2C3(C)C (stereo not drawn) [Compound 9n] | – | 35.2 (≈ 85 µM) | – | 7.79 (≈ 18.8 µM) | – | 33.4 (≈ 80.9 µM) | – | ≥ 100 | 32 | 89 |
| CCCCCc1cc2c(c(-c3ccccc3)c1)C1C3C(CCC3(C)O2)C1(C)C (stereo not drawn) [Compound 13b] | 75 | > 40 | 50 | 4.73 (≈ 12.6 µM) | both the viability and selectivity were significantly reduced | > 40 | ≥100 | – | – | – |
